Where two headings read alike, the source gives them in different places.

This experiment deals with Bacillus subtilis ATCC 6633. Kind of experiment: Test for antibacterial activity (paper disk, diameter of inhibitory zone, before and after incubation in rat liver/kidney homogenate). It is filed as cell-based. Conditions: 200 mcq/ml, 8 mm paper disk. The method, then:
Each of the test compounds shown in the following table was dissolved in a concentration of 200 mcq/ml in a homogenate of a 10% physiological saline solution of an organ of a rat, and incubated at 37° C. for 2 hours. An enzymatic reaction was stopped by adding an equal amount of ethanol. The antibacterial activity of the test compound before incubation was compared with that after incubation. The incubation was carried out in an equal amount mixture of a liver homogenate and a kidney homogenate. The antibacterial activity was measured by a paper disk having a diameter of 8 mm using Bacillus subtilis ATCC 6633 as a test organism, and shown by the diameter of the resulting inhibitory zone.

Where [1] appears, read: ATCC6633, after incubation at 37° C. for 2 hours in rat liver homogenate and kidney homogenate, read-out: Diameter of the inhibitory zone, after incubation.
The mark [2] stands for this setting: ATCC6633, before incubation, read-out: Diameter of the inhibitory zone, before incubation.

Take `CC(N)C1CCC(N)C(OC2C(N)CC(O)C(N(C)C(=O)CNC(=O)[C@@H](N)CCC(=O)NCCCCCCCCO)C2O)O1` (stereo partly drawn) [Example 42, 2"-N-[N^γ -(8-hydroxyoctyl)-L-glutaminyl]-5-de-O-methyl-KA-6606I]: the zone of inhibition at 200 µg/mL was 23 mm under setting [1] and 15.1 mm under setting [2].
`CCCNC(=O)CC[C@H](N)C(=O)NCC(=O)N(C)C1C(O)CC(N)C(OC2OC(C(C)N)CCC2N)C1O` (stereo partly drawn) [Example 29, 2"-N-(N^γ -propyl-L-glutaminyl)-5-de-O-methyl-KA-6606I]: the zone of inhibition at 200 µg/mL is, setting by setting: under setting [1], 24.6 mm; under setting [2], 15.1 mm.
On to `CCCC(=O)NCCCNC(=O)CC[C@H](N)C(=O)NCC(=O)N(C)C1C(O)CC(N)C(OC2OC(C(C)N)CCC2N)C1O` (stereo partly drawn) [Example 35, 2"-N-[N^γ -(3-n-butyrylaminopropyl)-L-glutaminyl]-5de-O-methyl-KA-6606I], for which the zone of inhibition at 200 µg/mL is, setting by setting: under setting [1], 20.7 mm; under setting [2], 10.7 mm.
In the same order, the values of `CCCCCCCCCCCCCCCCCCCCCCCC(=O)NCCCNC(=O)CC[C@H](N)C(=O)NCC(=O)N(C)C1C(O)CC(N)C(OC2OC(C(C)N)CCC2N)C1O` (stereo partly drawn) [Example 41, 2"-N-[N^γ -(3-lignocerolylaminopropyl)-L-glutaminyl]-5-de-O-methyl-KA-6606I] are 14.1 mm and 8 mm.
On to `CCCCCCCCCC(=O)OCCOC(=O)CC[C@H](N)C(=O)NCC(=O)N(C)C1C(O)CC(N)C(OC2OC(C(C)N)CCC2N)C1O` (stereo partly drawn) [Example 15, 2"-N-[γ-O-(2-decanoyloxyethyl)-L-glutamyl]-5-de-O-methyl-KA-6606I], for which the zone of inhibition at 200 µg/mL under setting [1] stood at 24.4 mm and the zone of inhibition at 200 µg/mL under setting [2] was 13.9 mm.
Take `CCCCCCCCCC(=O)SC[C@H](N)C(=O)NCC(=O)N(C)C1C(O)CC(N)C(OC2OC(C(C)N)CCC2N)C1O` (stereo partly drawn) [Example 55, 2"-N-(S-decanoyl-L-cysteinyl)-5-de-O-methyl-KA-6606I]: the zone of inhibition at 200 µg/mL under setting [1] turned out to be 18.6 mm and the zone of inhibition at 200 µg/mL under setting [2] turned out to be 10.3 mm.
The like results for `CC(N)C1CCC(N)C(OC2C(N)CC(O)C(N(C)C(=O)CNC(=O)[C@@H](N)CCCCNC(=O)CC[C@@H](C)[C@H]3CC[C@H]4[C@@H]5CC[C@@H]6C[C@H](O)CC[C@]6(C)[C@H]5C[C@H](O)[C@]34C)C2O)O1` (stereo partly drawn) [Example 4, 2"-N-(N^ε -deoxycholyl-L-lysyl)-5-de-O-methyl-KA-6606I] were, in that order, 19.8 mm and 12.7 mm.
In the same order, the values of `CCCCCCCCCCCCCCCCCC(=O)OCC(O)COC(=O)C[C@H](N)C(=O)NCC(=O)N(C)C1C(O)CC(N)C(OC2OC(C(C)N)CCC2N)C1O` (stereo partly drawn) [Example 13, 2"-N-[β-O-(3-stearoyloxy-2-hydroxypropyl)-L-aspartyl]-5-de-O-methyl-KA-6606I] are 18.8 mm and 13.7 mm.
As to `CCCCCCCCOC(=O)C[C@H](N)C(=O)NCC(=O)N(C)C1C(O)CC(N)C(OC2OC(C(C)N)CCC2N)C1O` (stereo partly drawn) [Example 10, 2"-N-(β-O-octyl-L-aspartyl)-5-de-O-methyl-KA-6606I], the zone of inhibition at 200 µg/mL turned out to be 21.1 mm under setting [1] and 14.2 mm under setting [2].
As to `CC(N)C1CCC(N)C(OC2C(N)CC(O)C(N(C)C(=O)CNC(=O)[C@@H](N)CCC(=O)N[C@@H](Cc3ccccc3)C(=O)O)C2O)O1` (stereo partly drawn) [Example 47, 2"-N-{N^γ -[(s)-1-carboxy-2-phenyl-ethyl]-L-glutaminyl}-5-de-O-methyl-KA-6606I], the zone of inhibition at 200 µg/mL runs as follows: under setting [1], 17.9 mm; under setting [2], 9.5 mm.
The like results for `CCCCCCCCCC(=O)OCC(CCCCOC(=O)CC[C@H](N)C(=O)NCC(=O)N(C)C1C(O)CC(N)C(OC2OC(C(C)N)CCC2N)C1O)OC(=O)CCCCCCCCC` (stereo partly drawn) [Example 23, 2"-N-{γ-[5,6-bis-(decanoyloxy)hexyl]-L-glutamyl}-5-de-O-methyl-KA-6606I] were, in that order, 19.5 mm and 10.5 mm.
For the compound `CCCCCCCCCC(=O)NCCCCC(NC(=O)CC[C@H](N)C(=O)NCC(=O)N(C)C1C(O)CC(N)C(OC2OC(C(C)N)CCC2N)C1O)C(=O)OC` (stereo partly drawn) [Example 49, 2"-N-{N^γ -[5-(decanoylamino)-1-(methoxycarbonyl)pentyl]-L-glutaminyl}-5-de-O-methyl-KA-6066I], the zone of inhibition at 200 µg/mL was determined as 16.1 mm under setting [1] and 15.9 mm under setting [2].
In the same order, the values of `CCCCCCCCCCCC(=O)NCCCNC(=O)CC[C@H](N)C(=O)NCC(=O)N(C)C1C(O)CC(N)C(OC2OC(C(C)N)CCC2N)C1O` (stereo partly drawn) [Example 39, 2"-N-[N^γ -(3-lauroylaminopropyl)-L-glutaminyl]-5-de-O-methyl-KA-6606I] are 21.2 mm and 9.8 mm.
In the same order, the values of `CC(=O)NCCCNC(=O)CC[C@H](N)C(=O)NCC(=O)N(C)C1C(O)CC(N)C(OC2OC(C(C)N)CCC2N)C1O` (stereo partly drawn) [Example 34, 2"-N-[N^γ -(3-acetylaminopropyl)-L-glutaminyl]-5-de-O-methyl-KA-66061] are 23.1 mm and 10.7 mm.
For `CC(C)OCCCNC(=O)CC[C@H](N)C(=O)NCC(=O)N(C)C1C(O)CC(N)C(OC2OC(C(C)N)CCC2N)C1O` (stereo partly drawn) [Example 43, 2"-N-[N^γ -(3-isopropoxypropyl)-L-glutaminyl]-5-de-O-methyl-KA-6606I], the zone of inhibition at 200 µg/mL is, setting by setting: under setting [1], 18.4 mm; under setting [2], 10.8 mm.
`CC(N)C1CCC(N)C(OC2C(N)CC(O)C(N(C)C(=O)CNC(=O)[C@@H](N)CSCc3ccncc3)C2O)O1` (stereo partly drawn) [Example 54, 2"-N-[S-(4-picolyl)-L-cysteinyl]-5-de-O-methyl-KA-6606I]: the zone of inhibition at 200 µg/mL reads like this: under setting [1], 25.3 mm; under setting [2], 14.1 mm.
In the case of `CCCCCCCCCC(=O)NCCCNC(=O)CC[C@H](N)C(=O)NCC(=O)N(C)C1C(O)C(OC2OC(C(C)N)CCC2N)C(N)C(O)C1OC` (stereo partly drawn) [Example 50, 2"-N-[N^γ -(3-decanoylaminopropyl)-L-glutaminyl)fortimicin A], the zone of inhibition at 200 µg/mL is, setting by setting: under setting [1], 23.6 mm; under setting [2], 15 mm.
On to `CCCCCCCCCC(=O)NCCCOC(=O)CC[C@H](N)C(=O)NCC(=O)N(C)C1C(O)CC(N)C(OC2OC(C(C)N)CCC2N)C1O` (stereo partly drawn) [Example 28, 2"-N-[γ-O-(3-decanoylaminopropyl)-L-glutamyl]-5-de-O-methyl-KA-6606I], for which the zone of inhibition at 200 µg/mL reads like this: under setting [1], 23.9 mm; under setting [2], 14.6 mm.
The like results for `CC(N)C1CCC(N)C(OC2C(N)CC(O)C(N(C)C(=O)CNC(=O)[C@@H](N)CSCc3ccc([N+](=O)[O-])cc3)C2O)O1` (stereo partly drawn) [Example 52, 2"-N-[S-(p-nitrobenzyl)-L-cysteinyl]-5-de-O-methyl-KA-6606I] were, in that order, 26.2 mm and 20.7 mm.
The like results for `CCCCCCCCCC(=O)NC(CCCCNC(=O)CC[C@H](N)C(=O)NCC(=O)N(C)C1C(O)CC(N)C(OC2OC(C(C)N)CCC2N)C1O)C(=O)OC` (stereo partly drawn) [Example 48, 2"-N-{N^γ -[5-(decanoylamino)-5-(methoxycarbonyl)pentyl]-L-glutaminyl}-5-de-O-methyl-KA-6606I] were, in that order, 18.3 mm and 18 mm.
In the case of `CCCCCCCCCC(=O)NCCCNC(=O)CC[C@H](N)C(=O)NCC(=O)N(C)C1C(OC)CC(N)C(OC2OC(CNC)CCC2N)C1O` (stereo partly drawn) [Example 57, 2"-N-[N^γ -(3-decanoylaminopropyl)-L-glutaminyl]-KA-7038I], the zone of inhibition at 200 µg/mL under setting [1] was found to be 23 mm and the zone of inhibition at 200 µg/mL under setting [2] turned out to be 15.9 mm.
With `CCCCCCCCOC(=O)NCCCC[C@H](N)C(=O)NCC(=O)N(C)C1C(O)CC(N)C(OC2OC(C(C)N)CCC2N)C1O` (stereo partly drawn) [Example 7, 2"-N-(N^ε -octyloxycarbonyl-L-lysyl)-5-de-O-methyl-KA-6606I], the zone of inhibition at 200 µg/mL under setting [1] is 20.7 mm and the zone of inhibition at 200 µg/mL under setting [2] was 10.5 mm.
Turning to `CCCCCCCCCCCCCCCCCC(=O)OCCCOC(=O)CC[C@H](N)C(=O)NCC(=O)N(C)C1C(O)CC(N)C(OC2OC(C(C)N)CCC2N)C1O` (stereo partly drawn) [Example 19, 2"-N-[γ-O-(3-stearoyloxypropyl)-L-glutamyl]-5-de-O-methyl-KA-6606I], the zone of inhibition at 200 µg/mL reads like this: under setting [1], 22.7 mm; under setting [2], 13.7 mm.
Consider `CCCOC1CCC2(C)C(CCC3C2CC(OCCC)C2(C)C(C(C)CCC(=O)NCCCNC(=O)CCC(N)C(=O)NCC(=O)N(C)C4C(O)CC(N)C(OC5OC(C(C)N)CCC5N)C4O)CCC32)C1` [Example 46, 2"-N-{N^γ -[3-(3,12-di-O-propyldeoxycholylamino)propyl]-L-glutaminyl}-5-di-O-methyl-KA-6606I], for which the zone of inhibition at 200 µg/mL under setting [1] came out at 16.6 mm and the zone of inhibition at 200 µg/mL under setting [2] came out at 15.9 mm.
For `CCCCCCCC(=O)NCCCNC(=O)CC[C@H](N)C(=O)NCC(=O)N(C)C1C(O)CC(N)C(OC2OC(C(C)N)CCC2N)C1O` (stereo partly drawn) [Example 37, 2"-N-[N^γ -(3-octanoylaminopropyl)-L-glutaminyl]-5-do-O-methyl-KA-6606I], the zone of inhibition at 200 µg/mL reads like this: under setting [1], 25.1 mm; under setting [2], 14.1 mm.
On to `CCCCCCCCCCCCCCCCCC(=O)OCCCCOC(=O)CC[C@H](N)C(=O)NCC(=O)N(C)C1C(O)CC(N)C(OC2OC(C(C)N)CCC2N)C1O` (stereo partly drawn) [Example 24, 2"-N-[γ-O-(4-stearoyloxybutyl)-L-glutamyl]-5-de-O-methyl-KA-6606I], for which the zone of inhibition at 200 µg/mL was found to be 22.6 mm under setting [1] and 16.2 mm under setting [2].
The like results for `CC(=O)OC1CCC2(C)C(CCC3C2CC(OC(C)=O)C2(C)C(C(C)CCC(=O)NCCCNC(=O)CCC(N)C(=O)NCC(=O)N(C)C4C(O)CC(N)C(OC5OC(C(C)N)CCC5N)C4O)CCC32)C1` [Example 45, 2"-N-{N^γ -[3-(3,12-di-O-acetyldeoxycholylamino)propyl]-L-glutaminyl}-5-de-O-methyl-KA-6606I] were, in that order, 16.7 mm and 14.8 mm.

(Values after patent US4855287A, “Aminoglycoside compounds, processes for production thereof, and pharamaceutical composition containing the same” (Kowa Company, Ltd., priority 1985, dated 1989).)
